The source made the active and inactive calls. The rule behind the calls is not given here.
Tested on: rodent lifetime carcinogenesis bioassay, tumor incidence TD50
Assay: carcinogenic potency in animals, long-term in vivo studies, CPDB compilation (AID 1745844)

SMILES: C[C@H]1CCCC(=O)CCC/C=C/c2cc(O)cc(O)c2C(=O)O1
- TD50 (mouse, strain B6C3F1, females, in feed, site: any site (literature study), lesion: several types, types named in the paper, dosed 104 weeks, study length 105 weeks): 17.9 mg/kg/day
- TD50 (mouse, strain B6C3F1, females, in feed, site: liver + pituitary gland, lesion: hepatocellular adenoma + hepatocellular carcinoma + adenoma, NOS + carcinoma, dosed 104 weeks, study length 105 weeks): 22 mg/kg/day
- TD50 (mouse, strain B6C3F1, females, in feed, site: liver, lesion: hepatocellular adenoma + hepatocellular carcinoma + neoplastic nodule, dosed 104 weeks, study length 105 weeks): 38.8 mg/kg/day
- TD50 (mouse, strain B6C3F1, females, in feed, site: liver, lesion: hepatocellular adenoma + hepatocellular carcinoma, dosed 104 weeks, study length 105 weeks): 38.8 mg/kg/day
- TD50 (mouse, strain B6C3F1, females, in feed, site: liver, lesion: hepatocellular adenoma, dosed 104 weeks, study length 105 weeks): 50.1 mg/kg/day
- TD50 (mouse, strain B6C3F1, females, in feed, site: pituitary gland, lesion: adenoma, NOS + carcinoma, dosed 104 weeks, study length 105 weeks): 32.3 mg/kg/day
- TD50 (mouse, strain B6C3F1, females, in feed, site: pituitary gland, lesion: adenoma, NOS, dosed 104 weeks, study length 105 weeks): 37.4 mg/kg/day
- TD50 (mouse, strain B6C3F1, males, in feed, site: pituitary gland, lesion: adenoma + carcinoma, dosed 104 weeks, study length 105 weeks): 49.1 mg/kg/day
- TD50 (mouse, strain B6C3F1, males, in feed, site: pituitary gland, lesion: adenoma, dosed 104 weeks, study length 105 weeks): 53.3 mg/kg/day
- TD50 (rat, strain Fischer 344, females, in feed, site: any site (literature study), lesion: several types, types named in the paper, dosed 104 weeks, study length 104 weeks): 80.9 mg/kg/day (inactive)
- TD50 (rat, strain Fischer 344, females, in feed, site: liver, lesion: hepatocellular adenoma + hepatocellular carcinoma + neoplastic nodule, dosed 104 weeks, study length 104 weeks): 33.5 mg/kg/day
- TD50 (rat, strain Fischer 344, males, in feed, site: any site (literature study), lesion: several types, types named in the paper, dosed 104 weeks, study length 104 weeks): 16.2 mg/kg/day (inactive)
- TD50 (rat, strain Fischer 344, males, in feed, site: liver, lesion: hepatocellular adenoma + hepatocellular carcinoma + neoplastic nodule, dosed 104 weeks, study length 104 weeks): 950 mg/kg/day

SMILES: CNC[C@H](O)c1cccc(O)c1
- TD50 (mouse, strain B6C3F1, females, in feed, site: any site (literature study), lesion: several types, types named in the paper, dosed 103 weeks, study length 104 weeks): 911 mg/kg/day (inactive)
- TD50 (mouse, strain B6C3F1, females, in feed, site: liver, lesion: hepatocellular adenoma + hepatocellular carcinoma + neoplastic nodule, dosed 103 weeks, study length 104 weeks): 7850 mg/kg/day
- TD50 (mouse, strain B6C3F1, females, in feed, site: lung, lesion: alveolar/bronchiolar adenoma + alveolar/bronchiolar carcinoma, dosed 103 weeks, study length 104 weeks): 1610 mg/kg/day
- TD50 (mouse, strain B6C3F1, males, in feed, site: any site (literature study), lesion: several types, types named in the paper, dosed 103 weeks, study length 104 weeks): 6330 mg/kg/day
- TD50 (mouse, strain B6C3F1, males, in feed, site: liver, lesion: hepatocellular adenoma + hepatocellular carcinoma + neoplastic nodule, dosed 103 weeks, study length 104 weeks): 4270 mg/kg/day
- TD50 (mouse, strain B6C3F1, males, in feed, site: lung, lesion: alveolar/bronchiolar adenoma + alveolar/bronchiolar carcinoma, dosed 103 weeks, study length 104 weeks): 2130 mg/kg/day
- TD50 (mouse, strain B6C3F1, males, in feed, site: multiple organs + spleen, lesion: malignant lymphoma, mixed type, dosed 103 weeks, study length 104 weeks): 1720 mg/kg/day
- TD50 (mouse, strain B6C3F1, males, in feed, site: subcutaneous tissue, lesion: fibrosarcoma, dosed 103 weeks, study length 104 weeks): 1640 mg/kg/day (inactive)
- TD50 (rat, strain Fischer 344, females, in feed, site: any site (literature study), lesion: several types, types named in the paper, dosed 103 weeks, study length 104 weeks): 272 mg/kg/day (inactive)
- carcinogen call (rat, strain Fischer 344, males, in feed, site: any site (literature study), lesion: several types, types named in the paper, dosed 103 weeks, study length 104 weeks): negative (inactive)

SMILES: O=S1OCCO1
- TD50 (mouse, strain Ha/ICR, females, i.p., site: lung, lesion: papillary tumor, dosed 64 weeks, study length 64 weeks): 1.03 mg/kg/day

SMILES: O=NN1CCCN(N=O)CC1
- TD50 (rat, strain Fischer 344, females, in drinking water, site: esophagus, lesion: several types, types named in the paper, dosed 30 weeks, study length 133 weeks): 0.253 mg/kg/day
- TD50 (rat, strain Fischer 344, females, in drinking water, site: esophagus, lesion: several types, types named in the paper, dosed 60 weeks, study length 82 weeks): 0.0553 mg/kg/day
- TD50 (rat, strain Fischer 344, females, in drinking water, site: esophagus, lesion: several types, types named in the paper, dosed 120 weeks, study length 133 weeks): 0.105 mg/kg/day
- carcinogen call (rat, strain Fischer 344, females, in drinking water, site: liver, lesion: several types, types named in the paper, dosed 30 weeks, study length 133 weeks): positive
- TD50 (rat, strain Fischer 344, females, in drinking water, site: liver, lesion: several types, types named in the paper, dosed 120 weeks, study length 133 weeks): 0.0973 mg/kg/day
- carcinogen call (rat, strain Fischer 344, females, in drinking water, site: nasal cavity, lesion: olfactory carcinoma, dosed 30 weeks, study length 133 weeks): positive
- TD50 (rat, strain Fischer 344, females, in drinking water, site: nasal cavity, lesion: olfactory carcinoma, dosed 60 weeks, study length 82 weeks): 0.207 mg/kg/day
- TD50 (rat, strain Fischer 344, females, in drinking water, site: tongue, lesion: basal-cell papilloma, dosed 120 weeks, study length 133 weeks): 0.63 mg/kg/day
- TD50 (rat, strain Fischer 344, females, in drinking water, site: upper gastrointestinal tract, lesion: carcinoma, dosed 30 weeks, study length 133 weeks): 0.24 mg/kg/day
- TD50 (rat, strain Fischer 344, females, in drinking water, site: upper gastrointestinal tract, lesion: carcinoma, dosed 60 weeks, study length 82 weeks): 0.0469 mg/kg/day
- TD50 (rat, strain Fischer 344, females, in drinking water, site: upper gastrointestinal tract, lesion: several types, types named in the paper, dosed 30 weeks, study length 133 weeks): 0.708 mg/kg/day
- TD50 (rat, strain Fischer 344, females, in drinking water, site: upper gastrointestinal tract, lesion: several types, types named in the paper, dosed 60 weeks, study length 82 weeks): 0.0297 mg/kg/day
- TD50 (rat, strain Fischer 344, females, in drinking water, site: upper gastrointestinal tract, lesion: several types, types named in the paper, dosed 120 weeks, study length 133 weeks): 0.0914 mg/kg/day

SMILES: Cc1ccc2c(-c3cccc(O)c3)nc(=O)n(C(C)C)c2c1
- carcinogen call (mouse, strain Charles River CD1, females, in feed, site: liver, lesion: hemangiosarcoma, dosed 86 weeks, study length 86 weeks): negative (inactive)
- carcinogen call (mouse, strain Charles River CD1, females, in feed, site: lung, lesion: alveolar/bronchiolar adenoma, dosed 86 weeks, study length 86 weeks): negative (inactive)
- TD50 (mouse, strain Charles River CD1, females, in feed, site: lung, lesion: alveolar/bronchiolar carcinoma, dosed 86 weeks, study length 86 weeks): 4600 mg/kg/day (inactive)
- carcinogen call (mouse, strain Charles River CD1, females, in feed, site: lung, lesion: hibernoma, malignant, dosed 86 weeks, study length 86 weeks): negative (inactive)
- carcinogen call (mouse, strain Charles River CD1, males, in feed, site: liver, lesion: hemangiosarcoma, dosed 86 weeks, study length 86 weeks): negative (inactive)
- carcinogen call (mouse, strain Charles River CD1, males, in feed, site: lung, lesion: alveolar/bronchiolar adenoma, dosed 86 weeks, study length 86 weeks): negative (inactive)
- TD50 (mouse, strain Charles River CD1, males, in feed, site: lung, lesion: alveolar/bronchiolar carcinoma, dosed 86 weeks, study length 86 weeks): 8400 mg/kg/day (inactive)
- carcinogen call (rat, strain Sandoz, females, in feed, site: liver, lesion: hepatocellular carcinoma, dosed 104 weeks, study length 104 weeks): negative (inactive)
- TD50 (rat, strain Sandoz, females, in feed, site: liver, lesion: neoplastic nodule, dosed 104 weeks, study length 104 weeks): 2220 mg/kg/day (inactive)
- carcinogen call (rat, strain Sandoz, females, in feed, site: mammary tissue, wider than the gland, lesion: fibroadenoma, dosed 104 weeks, study length 104 weeks): negative (inactive)
- TD50 (rat, strain Sandoz, males, in feed, site: adrenal gland, lesion: malignant tumor, dosed 104 weeks, study length 104 weeks): 113 mg/kg/day (inactive)
- carcinogen call (rat, strain Sandoz, males, in feed, site: liver, lesion: one or several types, types not named, dosed 104 weeks, study length 104 weeks): negative (inactive)

SMILES: CN(C)CCN(C)N=O
- TD50 (hamster, strain Syrian Golden, females, by gavage, site: colon, lesion: several types, types named in the paper, dosed 61 weeks, study length 106 weeks): 21 mg/kg/day
- TD50 (hamster, strain Syrian Golden, females, by gavage, site: liver, lesion: hepatocellular tumor, dosed 61 weeks, study length 106 weeks): 44 mg/kg/day
- TD50 (hamster, strain Syrian Golden, females, by gavage, site: lung, lesion: alveolar/bronchiolar adenoma, dosed 61 weeks, study length 106 weeks): 9.45 mg/kg/day
- TD50 (hamster, strain Syrian Golden, females, by gavage, site: nasal mucosa, lesion: malignant tumor, dosed 61 weeks, study length 106 weeks): 9.45 mg/kg/day
- TD50 (hamster, strain Syrian Golden, females, by gavage, site: nasal mucosa, lesion: several types, types named in the paper, dosed 61 weeks, study length 106 weeks): 2.76 mg/kg/day
- TD50 (hamster, strain Syrian Golden, males, by gavage, site: colon, lesion: adenocarcinoma, dosed 61 weeks, study length 106 weeks): 38.7 mg/kg/day
- TD50 (hamster, strain Syrian Golden, males, by gavage, site: liver, lesion: hepatocellular tumor, dosed 61 weeks, study length 106 weeks): 11.7 mg/kg/day
- TD50 (hamster, strain Syrian Golden, males, by gavage, site: nasal mucosa, lesion: malignant tumor, dosed 61 weeks, study length 106 weeks): 38.7 mg/kg/day
- TD50 (hamster, strain Syrian Golden, males, by gavage, site: nasal mucosa, lesion: several types, types named in the paper, dosed 61 weeks, study length 106 weeks): 6.25 mg/kg/day

SMILES: CN(N=O)C(=O)c1ccccc1
- TD50 (rat, strain MRC-Wistar, females, in drinking water, site: any site (literature study), lesion: several types, types named in the paper, dosed 52 weeks, study length 130 weeks): 11.2 mg/kg/day
- carcinogen call (rat, strain MRC-Wistar, females, in drinking water, site: liver, lesion: one or several types, types not named, dosed 52 weeks, study length 130 weeks): negative (inactive)
- TD50 (rat, strain MRC-Wistar, males, in drinking water, site: any site (literature study), lesion: several types, types named in the paper, dosed 52 weeks, study length 130 weeks): 2.49 mg/kg/day
- TD50 (rat, strain MRC-Wistar, males, in drinking water, site: forestomach, lesion: several types, types named in the paper, dosed 52 weeks, study length 130 weeks): 3.23 mg/kg/day
- TD50 (rat, strain MRC-Wistar, males, in drinking water, site: forestomach, lesion: squamous-cell carcinoma, dosed 52 weeks, study length 130 weeks): 9.66 mg/kg/day
- TD50 (rat, strain MRC-Wistar, males, in drinking water, site: forestomach, lesion: squamous-cell papilloma, dosed 52 weeks, study length 130 weeks): 7.73 mg/kg/day
- carcinogen call (rat, strain MRC-Wistar, males, in drinking water, site: liver, lesion: one or several types, types not named, dosed 52 weeks, study length 130 weeks): negative (inactive)

— PubChem BioAssay AID1745844 (Carcinogenic Potency Database (CPDB), 2022)
